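A five-concentration, 48-hour dose response in 96-well plates underlies each endpoint, interpolated linearly between surrounding concentrations. GI50 marks 50% less growth. TGI is the concentration that stops growth completely.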
Legend:
Test in all cases: NCI-60 cell line screen, 48 h
MDA-MB-435 = test system: MDA-MB-435
KM12 colon = test system: KM12 colon
CCRF-CEM leukemia = test system: CCRF-CEM leukemia
OVCAR-4 ovarian = test system: OVCAR-4 ovarian
NCI/ADR-RES ovarian = test system: NCI/ADR-RES ovarian
A498 renal = test system: A498 renal
SK-MEL-28 melanoma = test system: SK-MEL-28 melanoma
M14 melanoma = test system: M14 melanoma
HT29 colon = test system: HT29 colon
OVCAR-8 ovarian = test system: OVCAR-8 ovarian
RPMI-8226 leukemia = test system: RPMI-8226 leukemia
SF-268 CNS = test system: SF-268 CNS
RXF 393 renal = test system: RXF 393 renal
SK-MEL-5 melanoma = test system: SK-MEL-5 melanoma
UO-31 renal = test system: UO-31 renal
PC-3 prostate = test system: PC-3 prostate
A549 NSCLC = test system: A549 NSCLC
HCT-116 colon = test system: HCT-116 colon
CAKI-1 renal = test system: CAKI-1 renal
MOLT-4 leukemia = test system: MOLT-4 leukemia
HL-60(TB) leukemia = test system: HL-60(TB) leukemia
MDA-MB-231 breast = test system: MDA-MB-231 breast
786-0 renal = test system: 786-0 renal
OVCAR-5 ovarian = test system: OVCAR-5 ovarian
SN12C renal = test system: SN12C renal
IGROV1 ovarian = test system: IGROV1 ovarian
LOX IMVI melanoma = test system: LOX IMVI melanoma
HCC-2998 colon = test system: HCC-2998 colon
BT-549 breast = test system: BT-549 breast
SR leukemia = test system: SR leukemia
DU-145 prostate = test system: DU-145 prostate
NCI-H23 lung = test system: NCI-H23 lung
HOP-62 NSCLC = test system: HOP-62 NSCLC
UACC-62 melanoma = test system: UACC-62 melanoma
SK-OV-3 ovarian = test system: SK-OV-3 ovarian
SF-295 CNS = test system: SF-295 CNS
MCF7 breast = test system: MCF7 breast
ACHN renal = test system: ACHN renal
SW-620 colon = test system: SW-620 colon
MALME-3M melanoma = test system: MALME-3M melanoma
NCI-H522 lung = test system: NCI-H522 lung
T-47D breast = test system: T-47D breast
COLO 205 colon = test system: COLO 205 colon
SF-539 CNS = test system: SF-539 CNS
OVCAR-3 ovarian = test system: OVCAR-3 ovarian
K-562 leukemia = test system: K-562 leukemia
NCI-H460 lung = test system: NCI-H460 lung
EKVX NSCLC = test system: EKVX NSCLC
U251 CNS = test system: U251 CNS
HCT-15 colon = test system: HCT-15 colon
HOP-92 NSCLC = test system: HOP-92 NSCLC
NCI-H226 lung = test system: NCI-H226 lung
SK-MEL-2 melanoma = test system: SK-MEL-2 melanoma
SNB-19 CNS = test system: SNB-19 CNS
HS 578T breast = test system: HS 578T breast
SNB-75 CNS = test system: SNB-75 CNS
TK-10 renal = test system: TK-10 renal

Question: For `COc1cc(C(=O)/C(C)=C/c2c[nH]c3ccccc23)cc(OC)c1OC`, which GI50 (MDA-MB-435) is on record?
Answer: 2.32 nM

Question: What about the TGI (MDA-MB-435) of the same compound?
Answer: 6.33 nM

Question: And the GI50 (KM12 colon)?
Answer: 3.59 nM

Question: What about the GI50 (CCRF-CEM leukemia) of the same compound?
Answer: 5.11 nM

Question: And the TGI (CCRF-CEM leukemia)?
Answer: > 100000 nM

Question: What about the GI50 (OVCAR-4 ovarian) of the same compound?
Answer: 24.9 nM

Question: What about the TGI (OVCAR-4 ovarian) of the same compound?
Answer: > 100000 nM

Question: And the GI50 (NCI/ADR-RES ovarian)?
Answer: 3.22 nM

Question: And the TGI (NCI/ADR-RES ovarian)?
Answer: > 100000 nM

Question: What about the GI50 (A498 renal) of the same compound?
Answer: 2.5 nM

Question: And the TGI (A498 renal)?
Answer: 9.16 nM

Question: What about the GI50 (SK-MEL-28 melanoma) of the same compound?
Answer: 17.5 nM

Question: What about the GI50 (M14 melanoma) of the same compound?
Answer: 3.38 nM

Question: And the TGI (M14 melanoma)?
Answer: 1890 nM

Question: And the GI50 (HT29 colon)?
Answer: 4.02 nM

Question: What about the GI50 (OVCAR-8 ovarian) of the same compound?
Answer: 3.58 nM

Question: And the TGI (OVCAR-8 ovarian)?
Answer: 82400 nM

Question: And the GI50 (RPMI-8226 leukemia)?
Answer: 4.82 nM

Question: What about the TGI (RPMI-8226 leukemia) of the same compound?
Answer: 4550 nM

Question: And the GI50 (SF-268 CNS)?
Answer: 5.44 nM

Question: What about the TGI (SF-268 CNS) of the same compound?
Answer: 10600 nM

Question: And the GI50 (RXF 393 renal)?
Answer: 1810 nM

Question: And the TGI (RXF 393 renal)?
Answer: > 100000 nM

Question: And the GI50 (SK-MEL-5 melanoma)?
Answer: 4.28 nM

Question: And the TGI (SK-MEL-5 melanoma)?
Answer: 20.5 nM

Question: What about the GI50 (UO-31 renal) of the same compound?
Answer: 7.96 nM

Question: What about the TGI (UO-31 renal) of the same compound?
Answer: > 100000 nM

Question: And the GI50 (PC-3 prostate)?
Answer: 7.89 nM

Question: What about the TGI (PC-3 prostate) of the same compound?
Answer: > 100000 nM

Question: What about the GI50 (A549 NSCLC) of the same compound?
Answer: 4.1 nM

Question: What about the TGI (A549 NSCLC) of the same compound?
Answer: > 100000 nM

Question: And the GI50 (HCT-116 colon)?
Answer: 3.59 nM

Question: And the TGI (HCT-116 colon)?
Answer: > 100000 nM

Question: What about the GI50 (CAKI-1 renal) of the same compound?
Answer: 4.21 nM

Question: And the TGI (CAKI-1 renal)?
Answer: > 100000 nM

Question: And the GI50 (MOLT-4 leukemia)?
Answer: 5.46 nM

Question: What about the TGI (MOLT-4 leukemia) of the same compound?
Answer: 37000 nM

Question: What about the GI50 (HL-60(TB) leukemia) of the same compound?
Answer: 2.28 nM

Question: What about the TGI (HL-60(TB) leukemia) of the same compound?
Answer: 6.52 nM

Question: What about the GI50 (MDA-MB-231 breast) of the same compound?
Answer: 3.9 nM

Question: And the TGI (MDA-MB-231 breast)?
Answer: > 100000 nM

Question: What about the GI50 (786-0 renal) of the same compound?
Answer: 6.39 nM

Question: What about the TGI (786-0 renal) of the same compound?
Answer: > 100000 nM

Question: What about the GI50 (OVCAR-5 ovarian) of the same compound?
Answer: 84.2 nM

Question: What about the TGI (OVCAR-5 ovarian) of the same compound?
Answer: > 100000 nM

Question: What about the TGI (SN12C renal) of the same compound?
Answer: > 100000 nM

Question: And the GI50 (IGROV1 ovarian)?
Answer: 5.66 nM

Question: And the TGI (IGROV1 ovarian)?
Answer: > 100000 nM

Question: What about the GI50 (LOX IMVI melanoma) of the same compound?
Answer: 4.68 nM

Question: And the TGI (LOX IMVI melanoma)?
Answer: 11500 nM

Question: And the GI50 (HCC-2998 colon)?
Answer: 4.3 nM

Question: And the TGI (HCC-2998 colon)?
Answer: > 100000 nM

Question: And the GI50 (BT-549 breast)?
Answer: 5.83 nM

Question: And the GI50 (SR leukemia)?
Answer: 3.33 nM

Question: And the GI50 (DU-145 prostate)?
Answer: 3.83 nM

Question: And the TGI (DU-145 prostate)?
Answer: > 100000 nM

Question: And the GI50 (NCI-H23 lung)?
Answer: 5.16 nM

Question: What about the TGI (NCI-H23 lung) of the same compound?
Answer: > 100000 nM

Question: And the GI50 (HOP-62 NSCLC)?
Answer: 5.41 nM

Question: And the TGI (HOP-62 NSCLC)?
Answer: 11900 nM

Question: And the TGI (UACC-62 melanoma)?
Answer: 14100 nM

Question: What about the GI50 (SK-OV-3 ovarian) of the same compound?
Answer: 7.68 nM

Question: What about the TGI (SK-OV-3 ovarian) of the same compound?
Answer: 76800 nM

Question: What about the GI50 (SF-295 CNS) of the same compound?
Answer: 2.98 nM

Question: What about the TGI (SF-295 CNS) of the same compound?
Answer: 1610 nM

Question: And the GI50 (MCF7 breast)?
Answer: 3.57 nM

Question: And the TGI (MCF7 breast)?
Answer: > 100000 nM

Question: What about the GI50 (ACHN renal) of the same compound?
Answer: 6.19 nM

Question: And the TGI (ACHN renal)?
Answer: > 100000 nM

Question: What about the GI50 (SW-620 colon) of the same compound?
Answer: 4.16 nM

Question: And the TGI (SW-620 colon)?
Answer: > 100000 nM

Question: And the GI50 (MALME-3M melanoma)?
Answer: 14200 nM

Question: What about the TGI (MALME-3M melanoma) of the same compound?
Answer: > 100000 nM

Question: What about the GI50 (NCI-H522 lung) of the same compound?
Answer: 2.82 nM

Question: What about the TGI (NCI-H522 lung) of the same compound?
Answer: 7.28 nM

Question: And the GI50 (T-47D breast)?
Answer: 2460 nM

Question: And the TGI (T-47D breast)?
Answer: > 100000 nM

Question: And the GI50 (COLO 205 colon)?
Answer: 3.54 nM

Question: What about the TGI (COLO 205 colon) of the same compound?
Answer: 15.9 nM

Question: And the GI50 (SF-539 CNS)?
Answer: 2.8 nM

Question: What about the TGI (SF-539 CNS) of the same compound?
Answer: 12.9 nM

Question: What about the GI50 (OVCAR-3 ovarian) of the same compound?
Answer: 3.34 nM

Question: And the TGI (OVCAR-3 ovarian)?
Answer: 10.7 nM

Question: What about the GI50 (K-562 leukemia) of the same compound?
Answer: 3.46 nM

Question: What about the TGI (K-562 leukemia) of the same compound?
Answer: > 100000 nM

Question: And the GI50 (NCI-H460 lung)?
Answer: 3.69 nM

Question: And the TGI (NCI-H460 lung)?
Answer: > 100000 nM

Question: And the GI50 (EKVX NSCLC)?
Answer: 5.3 nM

Question: And the TGI (EKVX NSCLC)?
Answer: > 100000 nM

Question: And the GI50 (U251 CNS)?
Answer: 4.36 nM

Question: And the TGI (U251 CNS)?
Answer: 10600 nM

Question: And the GI50 (HCT-15 colon)?
Answer: 3.4 nM

Question: What about the TGI (HCT-15 colon) of the same compound?
Answer: > 100000 nM

Question: And the GI50 (HOP-92 NSCLC)?
Answer: 74 nM

Question: And the TGI (HOP-92 NSCLC)?
Answer: 2330 nM

Question: And the TGI (NCI-H226 lung)?
Answer: > 100000 nM

Question: What about the GI50 (SK-MEL-2 melanoma) of the same compound?
Answer: 12.3 nM

Question: What about the TGI (SK-MEL-2 melanoma) of the same compound?
Answer: 15200 nM

Question: And the GI50 (SNB-19 CNS)?
Answer: 4.06 nM

Question: And the TGI (SNB-19 CNS)?
Answer: > 100000 nM

Question: And the GI50 (HS 578T breast)?
Answer: 4.78 nM

Question: And the TGI (HS 578T breast)?
Answer: 48000 nM

Question: What about the GI50 (SNB-75 CNS) of the same compound?
Answer: 3.34 nM

Question: And the TGI (SNB-75 CNS)?
Answer: 16100 nM

Question: And the TGI (TK-10 renal)?
Answer: 12400 nM
